Measurements: patent US20230266302A1, “SYNTHESIS AND USE OF N-BENZYL SULFONAMIDES” (THE UNIVERSITY OF TULSA, priority 2020, published 2023)

How the values were obtained:
Assay in all cases: ATP level assay (CellTiter-Glo), percent of control
Format in all cases: cell-based
H293 (kidney cancer) = settings: two hour incubation; for activity at 100 µM: 2 h, compound alone, control DMSO, read-out: POC (percent of control) H293
SkBr3 (breast cancer) = settings: two hour incubation; for activity at 100 µM: Homo sapiens, SK-BR-3, 2 h, compound alone, control DMSO, read-out: POC (percent of control) SkBr3
HeLa (cervical cancer) = settings: two hour incubation; for activity at 100 µM: Homo sapiens, HeLa, 2 h, compound alone, control DMSO, read-out: POC (percent of control) HeLa
[1] = tested on: BxPC3 (pancreatic cancer); settings: two hour incubation; for activity at 100 µM: Homo sapiens, BXPC-3, 2 h, compound alone, control DMSO, read-out: POC (percent of control) BxPC3
MCF7 (breast cancer) = settings: two hour incubation; for activity at 100 µM: Homo sapiens, MCF7, 2 h, compound alone, control DMSO, read-out: POC (percent of control) MCF7
HDF (normal cells) = settings: two hour incubation; for activity at 100 µM: 2 h, compound alone, control DMSO, read-out: POC (percent of control) HDF
NCI-H196 (lung cancer) = settings: two hour incubation; for activity at 100 µM: NCI-H196, 2 h, compound alone, control DMSO, read-out: POC (percent of control) NCI-H196
[2] = tested on: MCF10A (non-cancerous breast); settings: two hour incubation; for activity at 100 µM: Homo sapiens, MCF-10A, 2 h, compound alone, control DMSO, read-out: POC (percent of control) MCF10A
T47D (breast cancer) = settings: two hour incubation; for activity at 100 µM: Homo sapiens, T47D, 2 h, compound alone, control DMSO, read-out: POC (percent of control) T47D
PC3 (prostate cancer) = settings: two hour incubation; for activity at 100 µM: 2 h, compound alone, control DMSO, read-out: POC (percent of control) PC3
MDA-MB (breast cancer) = settings: two hour incubation; for activity at 100 µM: 2 h, compound alone, control DMSO, read-out: POC (percent of control) MDA-MB
[3] = compound 100 uM + 2DG (about 10-20 mM)
[4] = compound 100 uM + rotenone (approximately 1.25 μM)

O=S(=O)(NCc1cncnc1)c1ccc(Cl)cc1 [Compound 14, 4-chloro-N-(pyrimidin-5-ylmethyl)benzenesulfonamide]
activity at 100 µM (H293 (kidney cancer)): 84.9%
POC (percent of control) H293 (H293 (kidney cancer); [3]): 82.1% of control
POC (percent of control) H293 (H293 (kidney cancer); [4]): 82.4% of control
activity at 100 µM (SkBr3 (breast cancer)): 107%
POC (percent of control) SkBr3 (SkBr3 (breast cancer); [3]): 96.9% of control
POC (percent of control) SkBr3 (SkBr3 (breast cancer); [4]): 98.3% of control
activity at 100 µM (HeLa (cervical cancer)): 98.3%
POC (percent of control) HeLa (HeLa (cervical cancer); [3]): 106.4% of control
POC (percent of control) HeLa (HeLa (cervical cancer); [4]): 102.1% of control
activity at 100 µM [1]: 93.8%
POC (percent of control) BxPC3 [1, 3]: 95.4% of control
POC (percent of control) BxPC3 [1, 4]: 60.9% of control
activity at 100 µM (MCF7 (breast cancer)): 126%
POC (percent of control) MCF7 (MCF7 (breast cancer); [3]): 109.8% of control
POC (percent of control) MCF7 (MCF7 (breast cancer); [4]): 94.4% of control
activity at 100 µM (HDF (normal cells)): 96.1%
POC (percent of control) HDF (HDF (normal cells); [3]): 96.3% of control
POC (percent of control) HDF (HDF (normal cells); [4]): 90.9% of control
activity at 100 µM (NCI-H196 (lung cancer)): 86.9%
POC (percent of control) NCI-H196 (NCI-H196 (lung cancer); [3]): 107.3% of control
POC (percent of control) NCI-H196 (NCI-H196 (lung cancer); [4]): 109% of control
activity at 100 µM [2]: 103%
POC (percent of control) MCF10A [2, 3]: 119.1% of control
POC (percent of control) MCF10A [2, 4]: 94.3% of control
activity at 100 µM (T47D (breast cancer)): 86.7%
POC (percent of control) T47D (T47D (breast cancer); [3]): 106.4% of control
POC (percent of control) T47D (T47D (breast cancer); [4]): 114.8% of control
activity at 100 µM (PC3 (prostate cancer)): 111%
POC (percent of control) PC3 (PC3 (prostate cancer); [3]): 101.7% of control
POC (percent of control) PC3 (PC3 (prostate cancer); [4]): 101.7% of control
activity at 100 µM (MDA-MB (breast cancer)): 105%
POC (percent of control) MDA-MB (MDA-MB (breast cancer); [3]): 86% of control
POC (percent of control) MDA-MB (MDA-MB (breast cancer); [4]): 87.5% of control

Cn1ncc2cc(CNS(=O)(=O)c3ccc(Cl)cc3)ccc21 [Compound 10, 4-chloro-N-[(1-methyl-1H-indazol-5-yl)methyl]benzenesulfonamide]
activity at 100 µM (H293 (kidney cancer)): 106%
POC (percent of control) H293 (H293 (kidney cancer); [3]): 84% of control
POC (percent of control) H293 (H293 (kidney cancer); [4]): 70.8% of control
activity at 100 µM (SkBr3 (breast cancer)): 90.8%
POC (percent of control) SkBr3 (SkBr3 (breast cancer); [3]): 98% of control
POC (percent of control) SkBr3 (SkBr3 (breast cancer); [4]): 107.3% of control
activity at 100 µM (HeLa (cervical cancer)): 106%
POC (percent of control) HeLa (HeLa (cervical cancer); [3]): 91.3% of control
POC (percent of control) HeLa (HeLa (cervical cancer); [4]): 85.5% of control
activity at 100 µM [1]: 66.3%
POC (percent of control) BxPC3 [1, 3]: 62.9% of control
POC (percent of control) BxPC3 [1, 4]: 54.4% of control
activity at 100 µM (MCF7 (breast cancer)): 115%
POC (percent of control) MCF7 (MCF7 (breast cancer); [3]): 121.2% of control
POC (percent of control) MCF7 (MCF7 (breast cancer); [4]): 89.4% of control
activity at 100 µM (HDF (normal cells)): 88.6%
POC (percent of control) HDF (HDF (normal cells); [3]): 92.7% of control
POC (percent of control) HDF (HDF (normal cells); [4]): 82.2% of control
activity at 100 µM (NCI-H196 (lung cancer)): 106%
POC (percent of control) NCI-H196 (NCI-H196 (lung cancer); [3]): 90.8% of control
POC (percent of control) NCI-H196 (NCI-H196 (lung cancer); [4]): 103.7% of control
activity at 100 µM [2]: 92%
POC (percent of control) MCF10A [2, 3]: 100.4% of control
POC (percent of control) MCF10A [2, 4]: 83.5% of control
activity at 100 µM (T47D (breast cancer)): 63.5%
POC (percent of control) T47D (T47D (breast cancer); [3]): 76.6% of control
POC (percent of control) T47D (T47D (breast cancer); [4]): 91.4% of control
activity at 100 µM (PC3 (prostate cancer)): 115%
POC (percent of control) PC3 (PC3 (prostate cancer); [3]): 97.8% of control
POC (percent of control) PC3 (PC3 (prostate cancer); [4]): 98.7% of control
activity at 100 µM (MDA-MB (breast cancer)): 94.1%
POC (percent of control) MDA-MB (MDA-MB (breast cancer); [3]): 86.7% of control
POC (percent of control) MDA-MB (MDA-MB (breast cancer); [4]): 87.4% of control
